Source: ChEMBL document CHEMBL1201862, “PubChem BioAssay data set” (2004)
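Step 1: Grow cells in 96-well plates. Step 2: Expose to compound for 48 hours at 5 concentrations. Step 3: Interpolate endpoints linearly; if unreached, use highest concentration. At the GI50, growth is halved.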 Active and inactive are the calls of the source. Cut-off read from the data, not from the text of the source: active = GI50 up to about 1.1 µM and inactive = higher.

What was measured:
Test in all cases: NCI-60 cell line screen, 48 h
[1] = test system: SW-620
[2] = test system: SK-MEL-5
[3] = test system: ACHN
[4] = test system: SNB-75
[5] = test system: 786-0
[6] = test system: TK-10
[7] = test system: A498
[8] = test system: HCT-116
[9] = test system: UACC-62
[10] = test system: UACC-257
[11] = test system: HCT-15
[12] = test system: CAKI-1
[13] = test system: IGROV-1
[14] = test system: MOLT-4
[15] = test system: SR
[16] = test system: SF-268
[17] = test system: NCI/ADR-RES
[18] = test system: BT-549
[19] = test system: T47D
[20] = test system: MDA-MB-231

SMILES | GI50 [1] | GI50 [2] | GI50 [3] | GI50 [4] | GI50 [5] | GI50 [6] | GI50 [7] | GI50 [8] | GI50 [9] | GI50 [10] | GI50 [11] [µM] | GI50 [12] | GI50 [13] | GI50 [14] | GI50 [15] | GI50 [16] | GI50 [17] | GI50 [18] | GI50 [19] | GI50 [20]
O=C(O)CCC(NC(=O)c1ccccc1)C(=O)O (centres undefined) | 42.3 µM (inactive) | > 100 µM (inactive) | > 100 µM (inactive) | > 100 µM (inactive) | > 100 µM (inactive) | > 100 µM (inactive) | > 100 µM (inactive) | 58.7 µM (inactive) | > 100 µM (inactive) | > 100 µM (inactive) | > 100 | > 100 µM (inactive) | > 100 µM (inactive) | > 100 µM (inactive) | > 100 µM (inactive) | > 100 µM (inactive) | – | – | – | –
COc1ccccc1/C=C1\CCC(CNc2ccc(Cl)cc2)C1=O (centres undefined) | 2.09 µM (inactive) | 3.16 µM (inactive) | 0.59 µM (active) | 15 µM (inactive) | 10.5 µM (inactive) | 5.18 µM (inactive) | 13.8 µM (inactive) | 4.38 µM (inactive) | 0.36 µM (active) | 13.8 µM (inactive) | 1.41 | 2.42 µM (inactive) | 5.83 µM (inactive) | 2.86 µM (inactive) | 1.76 µM (inactive) | 4.86 µM (inactive) | – | – | – | –
N#Cc1c([N+](=O)[O-])cc(C(F)(F)F)cc1[N+](=O)[O-] | 3.26 µM (inactive) | 15.3 µM (inactive) | 7.5 µM (inactive) | 6.22 µM (inactive) | 6.14 µM (inactive) | 13.7 µM (inactive) | 18.2 µM (inactive) | 7.76 µM (inactive) | 5.04 µM (inactive) | 6.7 µM (inactive) | 8.89 | 4.57 µM (inactive) | 5.65 µM (inactive) | 2.08 µM (inactive) | 2.16 µM (inactive) | 13.1 µM (inactive) | – | – | – | –
COC(=O)C(CC1=C(O)Nc2ccccc2N1)/C(=N/NC(N)=O)C(=O)Nc1ccccc1C (centres undefined) | – | 93.5 µM (inactive) | > 100 µM (inactive) | > 100 µM (inactive) | > 100 µM (inactive) | > 100 µM (inactive) | > 100 µM (inactive) | 18.2 µM (inactive) | > 100 µM (inactive) | > 100 µM (inactive) | 16.6 | > 100 µM (inactive) | > 100 µM (inactive) | > 100 µM (inactive) | 20.8 µM (inactive) | 16.5 µM (inactive) | – | – | – | –
O=C(NC(Cc1ccccc1)P(=O)(O)c1ccccc1)OCc1ccccc1 (centres undefined) | > 100 µM (inactive) | > 100 µM (inactive) | > 100 µM (inactive) | > 100 µM (inactive) | > 100 µM (inactive) | > 100 µM (inactive) | – | > 100 µM (inactive) | > 100 µM (inactive) | > 100 µM (inactive) | > 100 | > 100 µM (inactive) | > 100 µM (inactive) | > 100 µM (inactive) | > 100 µM (inactive) | > 100 µM (inactive) | > 100 µM (inactive) | > 100 µM (inactive) | > 100 µM (inactive) | –
N#CC(C#N)=C/C=C(\Sc1c(Cl)c(Cl)nc(Cl)c1Cl)c1ccc(Cl)cc1 | 5.77 µM (inactive) | 13 µM (inactive) | 16.8 µM (inactive) | 20.1 µM (inactive) | 4.45 µM (inactive) | 21.2 µM (inactive) | – | 10.2 µM (inactive) | 14.3 µM (inactive) | 14.8 µM (inactive) | 12.9 | 14.5 µM (inactive) | 18.7 µM (inactive) | 4.56 µM (inactive) | 3.75 µM (inactive) | 19.6 µM (inactive) | 12.8 µM (inactive) | – | 31.6 µM (inactive) | 21.6 µM (inactive)
O=c1c2ccc3cccc4c(=O)cc(c5ccccc15)-c2c34 | > 100 µM (inactive) | 57.4 µM (inactive) | > 100 µM (inactive) | > 100 µM (inactive) | > 100 µM (inactive) | > 100 µM (inactive) | > 100 µM (inactive) | > 100 µM (inactive) | > 100 µM (inactive) | > 100 µM (inactive) | > 100 | > 100 µM (inactive) | > 100 µM (inactive) | 59.2 µM (inactive) | > 100 µM (inactive) | > 100 µM (inactive) | – | – | – | –
Cc1ccc(C)c(N2C/C(=N\NC(=O)CC#N)C(c3nc4ccccc4s3)C(=O)C2=O)c1 (centres undefined) | > 100 µM (inactive) | > 100 µM (inactive) | > 100 µM (inactive) | > 100 µM (inactive) | > 100 µM (inactive) | > 100 µM (inactive) | > 100 µM (inactive) | > 100 µM (inactive) | > 100 µM (inactive) | > 100 µM (inactive) | > 100 | > 100 µM (inactive) | > 100 µM (inactive) | > 100 µM (inactive) | > 100 µM (inactive) | > 100 µM (inactive) | – | – | – | –
NC1CC2C3CCC2C1C3=O (centres undefined) | > 100 µM (inactive) | > 100 µM (inactive) | > 100 µM (inactive) | 4.76 µM (inactive) | > 100 µM (inactive) | > 100 µM (inactive) | > 100 µM (inactive) | > 100 µM (inactive) | > 100 µM (inactive) | > 100 µM (inactive) | > 100 | > 100 µM (inactive) | > 100 µM (inactive) | > 100 µM (inactive) | > 100 µM (inactive) | > 100 µM (inactive) | > 100 µM (inactive) | – | > 100 µM (inactive) | > 100 µM (inactive)
O=C1NN(Cc2ccccc2)C(=O)N2CCC[C@@H]12 | > 100 µM (inactive) | > 100 µM (inactive) | > 100 µM (inactive) | 0.0179 µM (active) | > 100 µM (inactive) | > 100 µM (inactive) | > 100 µM (inactive) | > 100 µM (inactive) | > 100 µM (inactive) | > 100 µM (inactive) | > 100 | > 100 µM (inactive) | > 100 µM (inactive) | > 100 µM (inactive) | – | > 100 µM (inactive) | > 100 µM (inactive) | – | > 100 µM (inactive) | > 100 µM (inactive)
COC(=O)C([C@H]1CC[C@H](OCc2ccccc2)[C@@]1(O)COCc1ccccc1)C(C)(O)CCc1ccccc1 (some centres undefined) | 13.5 µM (inactive) | 14.1 µM (inactive) | 12.5 µM (inactive) | 2.07 µM (inactive) | 12.9 µM (inactive) | 17.1 µM (inactive) | 15 µM (inactive) | 10.7 µM (inactive) | 13.2 µM (inactive) | 13.8 µM (inactive) | 13.5 | 57.9 µM (inactive) | 10.9 µM (inactive) | 3.63 µM (inactive) | 5.43 µM (inactive) | 4.01 µM (inactive) | 4.06 µM (inactive) | 16.7 µM (inactive) | – | 12 µM (inactive)
CC/C(C)=C1\CCC(CN2CCOCC2)C1=O (centres undefined) | 15.1 µM (inactive) | 28.5 µM (inactive) | 7.18 µM (inactive) | 25.2 µM (inactive) | 10.1 µM (inactive) | 14.5 µM (inactive) | 21.2 µM (inactive) | 13.9 µM (inactive) | 17.6 µM (inactive) | 17.3 µM (inactive) | 13.4 | 2.47 µM (inactive) | 20.4 µM (inactive) | 22.5 µM (inactive) | 11.2 µM (inactive) | 11.5 µM (inactive) | – | – | – | –
O=C(/C=C/c1cccc([N+](=O)[O-])c1)N1CCN(CCOC(c2ccccc2)c2ccccc2)CC1 | 38.9 µM (inactive) | 14.9 µM (inactive) | 34.5 µM (inactive) | 54.2 µM (inactive) | 38.2 µM (inactive) | 22.7 µM (inactive) | 50.7 µM (inactive) | 18.6 µM (inactive) | 33.8 µM (inactive) | 32.4 µM (inactive) | 31.1 | > 100 µM (inactive) | 42.6 µM (inactive) | 12.4 µM (inactive) | 16.1 µM (inactive) | – | 48.6 µM (inactive) | 27.4 µM (inactive) | 17.9 µM (inactive) | –
CCOC(=O)N1c2c(c3ccccc3n2C(=O)OCC)C(=O)C(OC)N1C(=O)OCC (centres undefined) | 31.7 µM (inactive) | 21.8 µM (inactive) | 25.6 µM (inactive) | – | 43.2 µM (inactive) | 50.5 µM (inactive) | 25.4 µM (inactive) | 26.5 µM (inactive) | 40.1 µM (inactive) | 29.4 µM (inactive) | 27.7 | 28.8 µM (inactive) | 26.5 µM (inactive) | 21.6 µM (inactive) | 16.9 µM (inactive) | – | 22.9 µM (inactive) | 60.7 µM (inactive) | – | 22.9 µM (inactive)
COC(CN(C)C(=S)Nc1cccc2ccccc12)OC | > 10 µM (inactive) | > 10 µM (inactive) | > 10 µM (inactive) | > 10 µM (inactive) | > 10 µM (inactive) | > 10 µM (inactive) | > 10 µM (inactive) | > 10 µM (inactive) | > 10 µM (inactive) | > 10 µM (inactive) | > 10 | > 10 µM (inactive) | > 10 µM (inactive) | > 10 µM (inactive) | > 10 µM (inactive) | > 10 µM (inactive) | > 10 µM (inactive) | – | > 10 µM (inactive) | > 10 µM (inactive)
O=c1c2c(-c3ccccc3)c3ccccc3nc2cnn1-c1ccccc1 | 91.4 µM (inactive) | > 100 µM (inactive) | > 100 µM (inactive) | > 100 µM (inactive) | > 100 µM (inactive) | > 100 µM (inactive) | > 100 µM (inactive) | > 100 µM (inactive) | > 100 µM (inactive) | > 100 µM (inactive) | > 100 | > 100 µM (inactive) | > 100 µM (inactive) | 96.2 µM (inactive) | 33.2 µM (inactive) | > 100 µM (inactive) | – | – | – | –
CCOC(=O)c1cnc2oc3ccc(O)cc3c2c1C | > 100 µM (inactive) | 69.3 µM (inactive) | > 100 µM (inactive) | – | > 100 µM (inactive) | 57.4 µM (inactive) | 98.2 µM (inactive) | > 100 µM (inactive) | > 100 µM (inactive) | > 100 µM (inactive) | > 100 | 67 µM (inactive) | – | 47.4 µM (inactive) | 74 µM (inactive) | – | 41.6 µM (inactive) | – | 38.5 µM (inactive) | > 100 µM (inactive)
